Patent US7892767B2, “Phosphospecific chemokine receptor antibodies” (Washington University in St. Louis, priority 2005, dated 2011)

Legend:
CXCR4 = target: T1, CXCR4 (Mus musculus, UniProt P70658); assay: CXCL12-induced CXCR4 phosphorylation (pCXCR4 western blot), Nf1−/− astrocytes; type: cell-based; details: CXCL12 0.1 μg/ml, at 5 minutes
T1 construct: endogenous in cells; host or cells: primary mouse astrocytes (Nf1 flox/flox, infected with Ad-LacZ or Ad-Cre)
Method: Western Blot Analysis. Whole-cell extracts were obtained by lysing cells with lysis buffer (20 mM Tris pH 7.4, 137 mM NaCl, 10% Glycerol and 1% Triton-X-100) supplemented with phosphatase inhibitor cocktail set II (Calbiochem, La Jolla, Calif.), PMSF (1 mM), leupeptin, (0.005 mg/ml) and aprotinin (0.005 mg/ml). The proteins were resolved with 10% Bis-Tris gels (Invitrogen) and transferred onto the nitrocellulose membrane Hybond ECL (Amersham, Piscataway, N.J.) according to standard protocols. Membranes were incubated with polyclonal antibodies CXCR4 (1:500), pErk½ (1:1200), pan Erk½ (1:150), pAkt (1:500), pan Akt (1:1000), pGRK2 (1:250), and pCXCR4 (1:200) overnight at 4° C. This was followed by incubation with horseradish peroxidase-conjugated secondary antibody (1:15,000; Bio-Rad). Peroxide activity was detected using the enhanced chemiluminescence Supersignal West Dura system (Pierce, Rockford, Ill.) Mouse anti-actin antibody was used as a loading control. Quantitation of western blots was performed by densitometry using Image J software from the NIH.
Among the primary mechanisms for controlling GPCR effects on cAMP production is receptor desensitization (140). This process is initiated when ligand occupied GPCR (e.g., CXCR4) is phosphorylated by G protein receptor kinase (GRK). […]

[1] = tested on: PDE4A-expressing Daoy cells; assay: Viable cell number, PDE4A-expressing Daoy cells; type: cell-based, human; details: CXCL12 1 μg/ml, AMD 3465 2.5 μg/ml, Rolipram 200 μM
Method: PDE4A expression. U87 and Daoy cells (15,000 cells) were transiently transfected for 48 h with a plasmid encoding a transgene for the tet-off transactivator (tTA) alone (kind gift from Dr. Louis Muglia, Washington University School of Medicine, St. Louis, Mo.), a plasmid containing a transgene for tet-off regulated expression of phosphodiesterase 4A (PDE4A) alone (kind gift from Dr. James Cherry, Boston University, Boston, Mass.), or a combination of both plasmids, using lipofectamine (Invitrogen) according to the manufacturer's instructions. Plasmid DNA (2 μg) was mixed with lipofectamine (5 μl) per 35 mm^2 dish. Transfection proceeded for 9 hours prior to exchanging transfection media for αMEM supplemented with 10% FCS.

astrocytes = assay: Cell number by trypan blue exclusion, primary astrocytes; type: cell-based, mouse; details: CXCL12 1 μg/ml, 24 hours
Method: Primary astrocyte cultures. Primary astrocytes were cultured from 1 to 3-day-old BALB/C mice as described (57). The cortices were triturated into single cells in minimal essential medium (Invitrogen) containing 10% FCS, and then plated onto 75 cm^2 T-flasks (0.5 hemisphere/flask) for 10-14 days. Astrocytes were prepared by vigorous shaking of T-flasks overnight, removal of non-adherent cells, and isolation of the remaining adherent cells, with 0.1% trypsin.
(§1) Growth factor and drug treatment. Following serum-starvation for 24 hours, astrocytes, granule cells, U87 cells and Daoy cells, were treated with 1 μg/ml CXCL12 (PeproTech), […] AMD3465 (kind gift from Simon Fricker, AnorMED, Langley, BC, Canada) (200 μM Rolipram (Sigma), or 10 μM Forskolin (Sigma) as indicated.

U87 glioblastoma cells = assay: Viable cell number by trypan blue exclusion, U87 cells; type: cell-based, human; details: CXCL12 1 μg/ml
Method: Brain tumor cell cultures. Cells were cultured in αMEM (Invitrogen, Carlsbad, Calif.) supplemented with 10% FCS (Biomedia, Foster City, Calif.) in the presence of penicillin streptomycin at 37° C. with 5% CO2.
as §1

T1 sequence (P70658 whole entry): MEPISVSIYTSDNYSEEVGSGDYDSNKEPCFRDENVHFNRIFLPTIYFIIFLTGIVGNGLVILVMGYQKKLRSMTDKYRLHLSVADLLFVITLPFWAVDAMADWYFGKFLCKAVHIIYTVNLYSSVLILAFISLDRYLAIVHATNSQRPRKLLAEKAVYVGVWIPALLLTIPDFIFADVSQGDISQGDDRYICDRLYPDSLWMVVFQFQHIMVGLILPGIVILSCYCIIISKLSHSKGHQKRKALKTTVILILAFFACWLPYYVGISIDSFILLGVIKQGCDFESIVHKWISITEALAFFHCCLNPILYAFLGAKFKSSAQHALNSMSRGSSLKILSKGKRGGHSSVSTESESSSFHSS

CXCL12: chemokine ligand of CXCR4 (Peprotech)
decrease in pCXCR4 (CXCR4): 0.56+/−0.14 fold | effect on cell number [1]: no longer any benefit | effect on cell number (astrocytes): tended to decrease | increase in cell number (U87 glioblastoma cells): greater than 2 fold | increase in cell number (U87 glioblastoma cells; serum-free): greater than 200%
